Experiments:
γ-glutamyl transferase [1] = experiment: SCI and SCII levels in regenerating planaria with γ-glutamyl transferase inhibitor; format: in vivo, Dugesia japonica; conditions: Acivicin 2.5 mM
γ-glutamyl transferase [2] = experiment: Sulfido-conjugate levels in activated human macrophages with γ-glutamyl transferase inhibitor; format: cell-based; conditions: Acivicin 2.5 mM
Method: Human macrophages (3×10^7 cells/ml) were incubated with DHA (1 μg, 37° C., PBS, pH 7.45) and E. coli (1.5×10^8 […]). Incubations were stopped with 2 volumes ice-cold methanol, products were extracted and levels assessed by LC-MS-MS. In select experiments, macrophages were incubated with Acivicin (2.5 mM, 37° C. PBS, pH 7.45) prior to addition of DHA (1 μg) and. Acivicin (2.5 mM) and products assessed by LC-MS-MS.
In select experiments, human macrophages (˜4.5×10^7 cells/ml) were incubated with DHA (10.5 μM) or 17-HpD [10 μM at 37° C. (pH 7.45)] and E. coli (1:50) for 30 min at 37° C. Incubations were stopped with 2 volumes of ice-cold methanol, products were extracted, and levels assessed by LC-MS-MS. Macrophages were also incubated with or without Acivicin [2.5 mM at 37° C., PBS (pH 7.45)], a γ-glutamyl transferase (GGT) agent that inhibits LT D4 formation (16), before addition of 17-HpD (10 μM) and E. coli (1:50; 60 min), and products were taken to […].

Human macrophages [3] = experiment: Human macrophage efferocytosis of apoptotic PMN; format: cell-based; conditions: 17-series sulfido-conjugates 0.1-10 nM; apoptotic PMNs 40 min
Method: (§1) Leukocyte phagocytosis: Macrophages were prepared from peripheral blood mononuclear cells (PBMC) purchased from Children's Hospital Blood Bank, Boston, and phagocytosis was assessed as in (11). Briefly, macrophages (5×10^4 cells,/well) were incubated with SCI (10 pM-100 nM), SCII (10 pM-100 nM), MaR1 (10 pM-100 nM), or vehicle (0.1% EtOH in DPBS) for 15 min at 37° C., then fluorescent labeled apoptotic cells were added and cells incubated 45 min at 37° C. Extracellular fluorescence was quenched using Trypan blue (1:15 dilution) and phagocytosis assessed using an M3 SpectraMax plate reader. In select experiments, macrophages (5×10^4 cells/well) or neutrophils (1×10^5 cells/well) were obtained from human healthy volunteers' peripheral blood as in (11) in accordance with Partners Human Research Committee Protocol (#1999P001297), and incubated with H2DCFDA (5 μM, 30 min, 37° C.), then with SCI (10 pM-100 nM), SCI (10 pM-100 nM) or vehicle (0.1% EtOH in DPBS, 15 min, 37° C.) and E. coli (1:50 leukocytes to E. coli, 45 min, 37° C.) Intracellular reactive oxygen species were determined by measuring fluorescence using an M3 SpectraMax plate reader. To assess bacterial phagocytosis, macrophages (5×10^4 cells/well) or neutrophils (1×10^5 cells/well) were incubated with SCI (10 pM-100 nM), SCII (10 pM-100 nM) or vehicle (0.1% EtOH in DPBS, 15 min, 37° C.), then incubated with BacLight Green (Molecular Probes) labeled E. coli (1:50 leukocytes to E. coli, 45 min, 37° C.), Extracellular fluorescence was quenched using Trypan blue (1:15 dilution), and phagocytosis assessed using an M3 SpectraMax plate reader.
In determined experiments, human macrophages were incubated with SC isolates from regenerating planaria for 15 min at 37° C., then fluorescent labeled apoptotic cells were added and efferocytosis was assessed as detailed above.
Macrophage bacterial phagocytosis, efferocytosis, and phagolysosontal acidification: Human macrophages were plated in 96-well plates (5×10^4 cells per well) for 24 h, and phagocytosis or efferocytosis was assessed as in (14). In brief, apoptotic PMNs were obtained by culturing cells overnight in PBS^−/− (5×10^6 cells/ml). Apoptotic human PMNs were labeled with bisbenzimide H33342 trihydrochloride (Sigma-Aldrich). Human macrophages were incubated with 0.1-10 nM concentration of test products, and then labeled apoptotic PMNs were cocultured with macrophages for 40 min [37° C. […]]. Fluorescence was read on a SpectraMax M3 plate reader (Molecular Devices, Sunnyvale, Calif., USA), and results were analyzed using SoftMax Pro (Molecular Devices).

Human macrophages [4] = experiment: Human macrophage phagocytosis of fluorescently labeled E. coli; format: cell-based; conditions: 17-series sulfido-conjugates 0.1-10 nM, 15 min; bacteria 40 min
Method: as §1
Macrophage phagocytosis was assessed using fluorescently labeled E. coli (serotype O6:K2;H1) with BacLight Green Bacterial Stain (Life Technologies, Eugene, Oreg., USA). E. coli [2.5×10^6 colony-forming units (CFL)/well] were then added to macrophages previously plated in 96-well plates (40 min at 37° C.) and incubated with 0.1-10 nM concentration of test compounds [15 min at 37° C. (pH 7.45)]. Fluorescence was measured on a SpectraMax M3 plate reader, and results were analyzed using SoftMax Pro.

Human macrophages [5] = experiment: Macrophage phagolysosomal acidification (pHrodo dye); format: cell-based; conditions: in the presence of bacteria, 60 min
Method: Macrophage phagolysosomal acidification was assessed by incubating macrophages with pHrodo dye (Invitrogen) following the manufacturer's instructions. Subsequently, cells were incubated with 1 nM of test compounds (15 min at 37° C.), E. coli (2.5×10^6 CFU/well) were added, and fluorescence was assessed after 60 min (37° C.) using a BZ9000 microscope equipped with a ×20 objective (Keyence, Itasca, Ill., USA) and a fluorescence plate reader.

[6] = system: Mice (hind-limb ischemia/reperfusion); experiment: Hind-limb ischemia reperfusion, second organ reflow injury; format: in vivo, mouse; conditions: SCI plus SCII 50 ng each or RvD1 500 ng i.v.
Method: Ischemia Reperfusion: Mice were anesthetized by intraperitoneal (i.p.) injection of […]. To initiate hind-limb ischemia, tourniquets consisting of a rubber band were placed on each hind limb. Ten min prior to the initiation of reperfusion, Vehicle (saline containing 0.1% EtOH), SCI (50 ng) plus SCII (50 ng) or Resolvin D1 (500 ng) were administered by intravenous injection. At the end of reperfusion (3 h), mice were euthanized, blood collected via cardiac puncture and plasma isolated for lipid mediator metabololipidomics. Lungs were harvested, left lungs were frozen in liquid nitrogen and stored at −80° C. Right lungs were stored in 10% (v/v) buffered formalin and processed for histology and hematoxylin and eosin (H&E) staining by the Children's Hospital Boston Core Histology Facility, imaged using a Keyence BZ-9000 microscope and BZ II imaging software (Keyence) Expression of Ki67 and Roof plate-specific Spondin-3 (RSPO3) were assessed by immunofluorescence staining. Briefly, sections were deparafinized in xylene and rehydrated, then blocked in 10% horse serum and stained with either rat anti-mouse RSPON3 antibody (R&D Systems) for 1 h at room temperature and then with sheep anti-rat Alexa-594 conjugated antibody (BioLegend), or with rabbit anti-mouse antibody (Abeam) and then with donkey anti-rabbit Alexa-488 antibody (BioLegend). Slides were mounted in Vector Shield mounting solution with DAPI (Vector Labs) and immunofluorescence assessed using a Zeiss LSM 510 Meta confocal microscope. Images were processed using ImageJ software (National Institutes of Health) and Adobe Photoshop CS6 (Adobe Systems incorporated) software. Frozen lungs were gently dispersed, centrifuged, and tissue myeloperoxidase (MPO) levels were determined using mouse MPO ELISA (R&D Systems).

SMILES	human macrophage efferocytosis (uptake of apoptotic human PMNs) (Human macrophages [3])	human macrophage phagocytosis of E. coli (Human macrophages [4])	macrophage phagolysosomal acidification (Human macrophages [5])	other results
N[C@H](C(=O)O)[C@@H]1CC(Cl)=NO1 [Acivicin]	–	–	–	SCI level in regenerating planaria (γ-glutamyl transferase [1]): increased; SCII levels in regenerating planaria (γ-glutamyl transferase [1]): decreased; 8-cysteinyl, 7,17-dihydroxy-docosahexaenoic acid (RCTR3) levels (γ-glutamyl transferase [2]; E. coli): decrease; 8-glutathionyl, 7,17-dihydroxy-docosahexaenoic acid (RCTR1) levels (γ-glutamyl transferase [2]; E. coli): statistically significant increase; 16-cysteinyl, 17-hydroxy-docosahexaenoic acid (PCTR3) levels (γ-glutamyl transferase [2]; E. coli): decrease; 16-glutathionyl, 17-hydroxy-docosahexaenoic acid (PCTR1) levels (γ-glutamyl transferase [2]; E. coli): increase; SCI levels (γ-glutamyl transferase [2]; then DHA and E. coli): significant increase; SCII levels (γ-glutamyl transferase [2]; then DHA and E. coli): reduction
CC/C=C\CC(O)C(/C=C/C=C/C=C\C/C=C\C/C=C\CCC(=O)O)SCC(NC(=O)CCC(N)C(=O)O)C(=O)NCC(=O)O (stereo not shown) [PCTR1, 16-glutathionyl, 17-hydroxy-4Z,7Z,10,12,14,19Z-docosahexaenoic acid]	dose-dependent increase	dose-dependent increase	dose-dependent increase	–
CC/C=C\C[C@H](O)[C@@H](/C=C/C=C/C=C\C/C=C\C/C=C\CCC(=O)O)SC[C@H](N)C(=O)NCC(=O)O [PCTR2, 16-cysteinylglycinyl, 17-hydroxy-4Z,7Z,10,12,14,19Z-docosahexaenoic acid]	dose-dependent increase	dose-dependent increase	dose-dependent increase	–
CC/C=C\C[C@H](O)[C@@H](/C=C/C=C/C=C\C/C=C\C/C=C\CCC(=O)O)SC[C@H](N)C(=O)O [PCTR3, 16-cysteinyl, 17-hydroxy-4Z,7Z,10,12,14,19Z-docosahexaenoic acid]	dose-dependent increase	dose-dependent increase	dose-dependent increase	–
CC/C=C\C[C@H](O)\C=C/C=C/C=C/[C@H](O)C/C=C\C/C=C\CCC(=O)O [PD1, 10R,17S-dihydroxy-docosa-4Z,7Z,11E,13E,15Z,19Z-hexaenoic acid, reference compound]	–	comparable	–	–
CC/C=C\C[C@H](O)/C=C/C=C\C=C\C=C\[C@@H](SC[C@H](NC(=O)CC[C@H](N)C(=O)O)C(=O)NCC(=O)O)[C@@H](O)C/C=C\CCC(=O)O [RCTR1, 8-glutathionyl, 7,17-hydroxy-4Z,9,11,13Z,15E,19Z-docosahexaenoic acid]	dose-dependent increase	dose-dependent increase	dose-dependent increase	–
CC/C=C\C[C@H](O)/C=C/C=C\C=C\C=C\[C@@H](SC[C@H](N)C(=O)NCC(=O)O)[C@@H](O)C/C=C\CCC(=O)O [RCTR2, 8-cysteinylglycinyl, 7,17-hydroxy-4Z,9,11,13Z,15E,19Z-docosahexaenoic acid]	dose-dependent increase	dose-dependent increase	dose-dependent increase	–
CC/C=C\C[C@H](O)/C=C/C=C\C=C\C=C\[C@@H](O)[C@@H](O)C/C=C\CCC(=O)O [RvD1, 7S,8R,17S-trihydroxy-docosa-4Z,9E,11E,13Z,15E,19Z-hexaenoic acid, reference compound]	–	–	–	leukocyte infiltration/migration into lungs and spleens (MPO) [6]: comparable
